Data taken from patent US20100179158A1, “INHIBITORS OF CYCLIC AMP PHOSPHODIESTERASES” (priority 2007, published 2010).
Blank lines part the entries; values can stand above or below the compound they belong to.

Legend:
[1] = test system: PDE2A, PDE4A, PDE4B, Cgs2; experiment: High throughput 5FOA growth screens of bioactive libraries; format: cell-based, murine; Schizosaccharomyces pombe; details: average 20 μM; composite Z score cut-off ≧8.53
Description: High throughput drug screens were carried out at the Broad Institute's Chemical Biology Program screening facility (Broad Institute, Cambridge, Mass.). Depending upon the strain, cultures were pregrown to exponential phase in EMM complete medium containing from 0.5 to 2.5 mM cAMP to repress fbp1-ura4 transcription. […] Starting cell concentrations ranged from 0.5×10^5 to 4×10^5 cells/ml depending on the screening strain. […] Other positive control dishes contained 5 mM cAMP in the 5FOA medium. Cultures were grown for 48 hours at 30° C., sealed in an airtight container with moist paper towels to prevent evaporation. Optical densities (OD600) of cultures were measured using a microplate reader. Bioinformatic analysis of the results to determine composite Z scores was performed as previously described^30, 31.

[2] = target: T1, Cgs2 (Schizosaccharomyces pombe, UniProt P36599); experiment: fbp1-lacZ β-galactosidase assay, Cgs2 strain CHP861; format: cell-based; details: specific activity per milligram of soluble protein, average ± SD
T1 construct: the wild-type S. pombe Cgs2^+ PDE; endogenous in cells; host or cells: Schizosaccharomyces pombe strain CHP861
T1 sequence (P36599 1-346): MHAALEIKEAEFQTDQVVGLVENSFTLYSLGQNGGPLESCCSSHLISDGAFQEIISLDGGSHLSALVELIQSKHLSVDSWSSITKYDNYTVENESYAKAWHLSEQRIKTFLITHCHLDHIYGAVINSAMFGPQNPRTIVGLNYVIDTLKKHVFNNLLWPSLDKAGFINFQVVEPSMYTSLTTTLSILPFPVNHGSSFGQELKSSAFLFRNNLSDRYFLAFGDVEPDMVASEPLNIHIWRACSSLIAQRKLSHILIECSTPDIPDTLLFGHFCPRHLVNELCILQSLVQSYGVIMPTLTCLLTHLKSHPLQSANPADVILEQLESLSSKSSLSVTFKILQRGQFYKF
Description: (§1) β-galactosidase assays and characterization of 5FOA-sensitivity were carried out as previously described^10. cAMP assays were performed on exponential phase cells grown in EMM complete medium (3% glucose), using the Assay Designs cAMP EIA kit, according to manufacturer's instructions (Assay Designs, Ann arbor, MI).
(§2) The effect of known PDE inhibitors on the expression of the fbp1-lacZ fusion in murine PDE-expressing strains was tested. […] For Table 4 β-galactosidase activity was determined from 3 to 4 independent exponential phase cultures. The average±SD represents specific activity per milligram of soluble protein.

[3] = target: T2, PDE8A (Mus musculus, UniProt O88502); experiment: fbp1-lacZ β-galactosidase assay, PDE8A strain DDP13; format: cell-based, murine; details: for β-galactosidase activity, PDE8A strain: specific activity per milligram of soluble protein, average ± SD
T2 construct: targets used in the assays are full-length proteins (as opposed to simply the catalytic domain); expressed in transfected cells; host or cells: Schizosaccharomyces pombe strains DDP13 and CHP1141
T2 sequence (O88502 1-823): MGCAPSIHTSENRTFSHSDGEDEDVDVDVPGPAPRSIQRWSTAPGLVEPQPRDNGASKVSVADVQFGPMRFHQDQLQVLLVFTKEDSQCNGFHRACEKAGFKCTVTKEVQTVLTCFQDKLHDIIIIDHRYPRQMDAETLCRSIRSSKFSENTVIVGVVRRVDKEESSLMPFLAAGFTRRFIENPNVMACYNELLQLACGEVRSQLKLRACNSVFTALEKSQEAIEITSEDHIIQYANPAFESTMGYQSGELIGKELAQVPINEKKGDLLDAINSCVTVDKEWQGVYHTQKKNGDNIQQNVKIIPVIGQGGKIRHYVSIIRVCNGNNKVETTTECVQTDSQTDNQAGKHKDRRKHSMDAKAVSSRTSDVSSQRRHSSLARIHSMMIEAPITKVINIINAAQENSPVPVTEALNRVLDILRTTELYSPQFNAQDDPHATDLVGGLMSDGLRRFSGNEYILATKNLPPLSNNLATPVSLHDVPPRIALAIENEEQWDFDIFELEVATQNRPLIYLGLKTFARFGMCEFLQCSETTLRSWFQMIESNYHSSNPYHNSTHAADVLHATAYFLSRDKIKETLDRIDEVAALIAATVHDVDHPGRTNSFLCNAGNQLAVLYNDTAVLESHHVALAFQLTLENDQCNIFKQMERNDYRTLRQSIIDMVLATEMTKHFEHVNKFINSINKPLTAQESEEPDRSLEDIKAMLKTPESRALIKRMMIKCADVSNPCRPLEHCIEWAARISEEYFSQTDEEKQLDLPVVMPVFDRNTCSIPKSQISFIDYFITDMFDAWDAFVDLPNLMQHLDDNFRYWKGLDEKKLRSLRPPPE
Description: as §1, §2

[4] = target: T2, PDE8A; experiment: cAMP assay in yeast strain CHP1141 expressing PDE8A; format: cell-based, murine; details: rolipram 20 and 200 μM, one-hour time point
Description: as §1
(§3) Thus, PDE inhibition can be indirectly quantitated by measuring the effect of a compound on cAMP levels in target yeast strains.

[5] = target: T3, PDE2A (Mus musculus, UniProt Q922S4); experiment: fbp1-lacZ β-galactosidase assay, PDE2A strain LWP367; format: cell-based, murine; details: specific activity per milligram of soluble protein, average ± SD
T3 construct: targets used in the assays are full-length proteins (as opposed to simply the catalytic domain); expressed in transfected cells; host or cells: Schizosaccharomyces pombe strains LWP367 and LWP371
T3 sequence (Q922S4 1-939): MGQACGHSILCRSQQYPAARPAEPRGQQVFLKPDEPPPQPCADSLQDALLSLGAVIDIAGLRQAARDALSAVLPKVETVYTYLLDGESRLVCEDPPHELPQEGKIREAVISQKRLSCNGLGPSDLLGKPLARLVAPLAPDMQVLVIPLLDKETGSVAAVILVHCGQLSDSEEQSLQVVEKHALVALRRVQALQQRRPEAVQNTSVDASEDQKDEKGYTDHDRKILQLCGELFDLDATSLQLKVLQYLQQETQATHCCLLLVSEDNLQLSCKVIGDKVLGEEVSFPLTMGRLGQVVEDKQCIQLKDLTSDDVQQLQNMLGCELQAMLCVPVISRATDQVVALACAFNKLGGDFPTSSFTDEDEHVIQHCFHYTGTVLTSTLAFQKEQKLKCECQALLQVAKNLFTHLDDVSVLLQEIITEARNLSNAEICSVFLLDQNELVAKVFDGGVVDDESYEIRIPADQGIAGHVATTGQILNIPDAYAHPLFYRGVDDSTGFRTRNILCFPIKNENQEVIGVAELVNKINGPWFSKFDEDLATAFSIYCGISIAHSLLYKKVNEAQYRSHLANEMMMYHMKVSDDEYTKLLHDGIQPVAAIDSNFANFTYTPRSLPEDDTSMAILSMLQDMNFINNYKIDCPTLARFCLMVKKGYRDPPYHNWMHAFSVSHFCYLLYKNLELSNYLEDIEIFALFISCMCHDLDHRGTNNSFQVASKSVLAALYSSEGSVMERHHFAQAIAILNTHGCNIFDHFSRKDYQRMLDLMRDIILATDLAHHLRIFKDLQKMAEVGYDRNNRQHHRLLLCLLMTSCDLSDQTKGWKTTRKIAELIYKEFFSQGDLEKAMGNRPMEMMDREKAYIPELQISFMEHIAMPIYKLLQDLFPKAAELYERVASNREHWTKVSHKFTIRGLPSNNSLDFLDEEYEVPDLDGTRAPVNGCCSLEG
Description: as §1, §2

[6] = target: T3, PDE2A; experiment: cAMP assay in yeast strain LWP371 expressing PDE2A; format: cell-based, murine; details: 20 μM EHNA as compared to 200 μM, one-hour time point
Description: as §1, §3

[7] = target: T4, PDE4A1 (Mus musculus, UniProt O89084); experiment: IC50 on PDE4A1; format: biochemical, murine; details: read-out: IC50, PDE 4A1
T4 construct: targets used in the assays are full-length proteins (as opposed to simply the catalytic domain); expressed in transfected cells; host or cells: Schizosaccharomyces pombe, gene integrated at the cgs2 locus
T4 sequence (O89084 1-610 isoform O89084-2): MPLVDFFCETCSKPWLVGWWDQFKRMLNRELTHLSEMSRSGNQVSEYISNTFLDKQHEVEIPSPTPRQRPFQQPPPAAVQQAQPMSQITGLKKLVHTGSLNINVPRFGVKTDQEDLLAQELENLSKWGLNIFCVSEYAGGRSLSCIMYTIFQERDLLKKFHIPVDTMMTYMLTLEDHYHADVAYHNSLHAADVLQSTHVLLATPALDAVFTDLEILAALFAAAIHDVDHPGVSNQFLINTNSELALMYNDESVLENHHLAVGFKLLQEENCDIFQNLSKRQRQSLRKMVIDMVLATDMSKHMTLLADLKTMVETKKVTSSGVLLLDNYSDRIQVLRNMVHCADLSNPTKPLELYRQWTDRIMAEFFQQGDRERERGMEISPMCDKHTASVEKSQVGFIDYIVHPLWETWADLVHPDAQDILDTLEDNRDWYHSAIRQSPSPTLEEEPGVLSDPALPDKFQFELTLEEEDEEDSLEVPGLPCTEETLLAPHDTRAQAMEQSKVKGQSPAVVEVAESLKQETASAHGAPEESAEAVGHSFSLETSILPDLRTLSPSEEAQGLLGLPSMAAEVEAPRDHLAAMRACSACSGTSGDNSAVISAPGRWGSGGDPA

[8] = target: T5, PDE4D3 (Homo sapiens, UniProt Q08499); experiment: IC50 on PDE4D3; format: biochemical; details: read-out: IC50, PDE 4D3
T5 construct: targets used in the assays are full-length proteins (as opposed to simply the catalytic domain); expressed in transfected cells; host or cells: Schizosaccharomyces pombe, gene integrated at the cgs2 locus
T5 sequence (Q08499 1-673 isoform Q08499-2): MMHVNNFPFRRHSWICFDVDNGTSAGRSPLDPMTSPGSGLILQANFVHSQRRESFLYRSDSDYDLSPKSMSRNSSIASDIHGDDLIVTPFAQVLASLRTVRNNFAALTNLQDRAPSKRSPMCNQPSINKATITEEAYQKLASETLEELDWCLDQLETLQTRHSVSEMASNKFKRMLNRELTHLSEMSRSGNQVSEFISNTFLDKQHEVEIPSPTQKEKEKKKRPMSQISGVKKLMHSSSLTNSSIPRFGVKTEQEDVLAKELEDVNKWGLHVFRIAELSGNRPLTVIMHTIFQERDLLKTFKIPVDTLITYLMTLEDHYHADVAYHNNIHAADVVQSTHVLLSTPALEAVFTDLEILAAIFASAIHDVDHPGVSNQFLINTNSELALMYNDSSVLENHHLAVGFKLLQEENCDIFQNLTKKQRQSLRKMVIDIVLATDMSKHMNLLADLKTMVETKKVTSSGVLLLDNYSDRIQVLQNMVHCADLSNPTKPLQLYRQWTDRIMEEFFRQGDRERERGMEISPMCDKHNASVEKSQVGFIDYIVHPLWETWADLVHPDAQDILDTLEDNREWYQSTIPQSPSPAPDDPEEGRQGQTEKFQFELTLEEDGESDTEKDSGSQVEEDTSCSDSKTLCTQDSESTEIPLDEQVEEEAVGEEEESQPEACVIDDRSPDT

[9] = target: T6, PDE7A (Homo sapiens, UniProt Q13946); experiment: cAMP assay in yeast strain expressing PDE7A; format: cell-based
T6 construct: targets used in the assays are full-length proteins (as opposed to simply the catalytic domain); expressed in transfected cells; host or cells: Schizosaccharomyces pombe, gene integrated at the cgs2 locus
T6 sequence (Q13946 whole entry, the tested form may be a part): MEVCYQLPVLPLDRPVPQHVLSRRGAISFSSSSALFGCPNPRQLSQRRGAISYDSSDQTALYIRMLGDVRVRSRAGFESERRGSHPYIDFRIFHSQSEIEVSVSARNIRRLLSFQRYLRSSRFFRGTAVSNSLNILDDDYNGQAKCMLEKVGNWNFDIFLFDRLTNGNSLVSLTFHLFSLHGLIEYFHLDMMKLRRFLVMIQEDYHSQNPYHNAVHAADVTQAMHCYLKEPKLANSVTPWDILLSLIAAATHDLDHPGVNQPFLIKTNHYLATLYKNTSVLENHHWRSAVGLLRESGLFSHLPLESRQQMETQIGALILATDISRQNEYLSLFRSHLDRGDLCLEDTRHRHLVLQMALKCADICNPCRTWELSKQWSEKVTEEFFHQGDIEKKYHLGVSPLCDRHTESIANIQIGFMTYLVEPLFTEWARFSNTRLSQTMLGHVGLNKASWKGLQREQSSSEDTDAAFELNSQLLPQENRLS

[10] = test system: PDE4A, PDE4B, PDE4D, PDE7A; experiment: Overall PDE inhibitor profile from the yeast assays (table footnotes, summary); format: cell-based
From the text: PDE inhibitors were identified using methods described herein, such as high throughput drug screens on genetically engineered fission yeast strains that express drug targets (e.g., PDE4A and/or PDE4B, which are anti-inflammatory targets). PDE inhibitors were identified based on their ability to stimulate growth and compounds were identified because they were effective in live cells. In addition, targets used in the assays are full-length proteins (as opposed to simply the catalytic domain) and the assay used included a built-in toxicity test, permeability test and stability test. The inhibitors identified display a very high degree of target specificity. Compounds identified include inhibitors that act on two of three PDE4 family enzymes and inhibitors that act on combinations of PDE4 and PDE7 strains. […] Limited inhibition of PDE4D by a PDE inhibitor is desirable, in view of the fact that inhibition of PDE4D causes emesis and cardiac arrhythmias. Subtype specificity was confirmed by means of cAMP assays.
Cells were pregrown in EMM medium [MP Biomedicals (Solon, OH), 3% glucose, filter-sterilized to avoid carmelization, which would introduce variability into the optical density of the medium] containing from 0 mM to 2.5 mM cAMP (or either 0.5 mM or 1.0 mM cGMP). This was to repress expression of the fbp1-ura4 reporter prior to exposure of cells to 5FOA medium. Cells were grown at 30° C. to exponential phase (approximately 10^7 cells/ml). Cells were collected by centrifugation and resuspended in 5FOA medium, and 25 μl were transferred to 384-well microtiter dishes (untreated, with flat clear bottoms) that had been pre-filled with 25 μl 5FOA medium and pre-pinned with 100 nl of compounds (stock solutions were generally 10 mM). Starting cell concentrations ranged from 0.5×10^5 to 4×10^5 cells/ml depending on the screening strain. […] Other positive control dishes contained 5 mM cAMP in the 5FOA medium for PDEs that lack appropriate control compounds. Cultures were grown for 48 hours at 30° C., sealed in an airtight container with moist paper towels to prevent evaporation. Optical densities (OD600) of cultures were measured using a microplate reader. Bioinformatic analysis of the results to determine composite Z scores was performed as previously described (1, 3).

SMILES: COc1c2occc2c(OC)c2c(=O)cc(C)oc12 [khellin]
Result in high throughput screens for 5FOA-resistant growth [1]: identified

β-galactosidase activity, Cgs2 strain ([2]; 50 μM Rolipram): 1807 ± 446
β-galactosidase activity, Cgs2 strain ([2]; 100 μM Rolipram): 1784 ± 429
β-galactosidase activity, PDE8A strain ([3]; 50 μM Rolipram): 253 ± 46
β-galactosidase activity, PDE8A strain ([3]; 100 μM Rolipram): 237 ± 67
cAMP levels in PDE8A strain on treatment [4]: completely insensitive
SMILES: COc1ccc(C2CNC(=O)C2)cc1OC1CCCC1 (stereo not drawn) [Rolipram, rolipram]
Result in high throughput screens for 5FOA-resistant growth [1]: only affected the PDE4A- and PDE4B-expressing strains

β-galactosidase activity, PDE2A strain ([5]; 5 μM EHNA): 473 ± 19
β-galactosidase activity, PDE2A strain ([5]; 20 μM EHNA): 197 ± 51
β-galactosidase activity, PDE2A strain ([5]; 200 μM EHNA): 45 ± 3
PDE2A inhibition judged by cAMP levels [6]: partial inhibition
SMILES: CCCCCC[C@@H]([C@@H](C)O)n1cnc2c(N)ncnc21 (racemic) [EHNA, erythro-9-(2-hydroxy-3-nonyl)adenine]

Inhibition of PDE8A in yeast ([3]; possibly a permeability problem in the yeast): not able to be inhibited
SMILES: OCCN(CCO)c1nc(N2CCCCC2)c2nc(N(CCO)CCO)nc(N3CCCCC3)c2n1 [dipyridamole]

SMILES: COc1c2ccoc2cc2oc(C)cc(=O)c12 [visnagin]
Result in high throughput screens for 5FOA-resistant growth [1]: identified

IC50 [7]: 100 nM
IC50 [8]: 35 nM
SMILES: CC(C)n1c2ccc(Cl)cc2c2nc3ccccc3nc21 [Compound 35]

SMILES: Cc1cc2cc3c(C)cc(=O)oc3c(C)c2o1 [trioxsalen]
Result in high throughput screens for 5FOA-resistant growth [1]: identified

cAMP Response (%BRL50481), PDE 7A [9]: 89.00 %BRL50481
SMILES: COc1ccc2c(c1)C1(C)CCC(=O)CC1CC2 (single isomer, unassigned) [Compound 11]
PDE inhibitor profile in words (table footnote / summary) [10]: (3) Strong PDE7A inhibitor
